Measured values published in patent US20160039852A1, “THERAPEUTIC USES OF BISPHOSPHONATES” (THE UNIVERSITY OF SHEFFIELD, priority 2013, published 2016).
Where two headings read alike, the source gives them in different places.

Experiments:
[1] = system: human mesenchymal stem cells (hMSC); test: hMSC growth kinetics, cumulative population doublings with time in culture; type: cell-based; settings: for population doublings after which cultures stopped proliferating: hMSC, from the start of the treatment, PBS cultures senesced after 21-25 PDs, n=3; for hMSC life span / time of proliferation in culture: versus PBS control
[2] = system: human mesenchymal stem cells (hMSC); test: Immunostaining of γH2AX DNA damage foci (double stranded breaks) in hMSC; type: cell-based; settings: for number of γH2AX DNA damage foci after irradiation: 1Gy irradiation, compound at 1 μM, foci at 4 h (Zol also 12, 24 h) versus PBS; for effect of Zol on DNA damage after addition of prenylation intermediate: 1Gy, Zol plus FOH or GGOH (33 μM)
Method: DNA damage was induced by exposing hMSC to ^137Cs Gamma source. Cells were washed with PBS and fixed with 4% Para-formaldehyde for […]. Cells were then washed with PBS permeabilized with 0.5% Triton-X (Sigma, UK) for […] and blocked with 5% normal goat serum (DAKO, Glostrup, Denmark) in PBS for 1 hr. This was followed by incubation with primary antibody, anti-phospho histone H2AX (Ser139) (Millipore, Massachusetts, USA) used at 1:800 in 5% normal goat serum, overnight at 4° C. Cells were then washed in PBS and incubated in secondary Anti mouse IgG Fluorescein Isothiocyanate (FITC) conjugated (Insight Biotechnology, Santa Cruz, USA) at 1:200 in PBS for 1 hour at room temperature. The cover-slips were mounted on slides with mounting media (VectaShield) containing 4',6-diamidino-2-phenylindole (DAPI) to stain the nuclei. […] Cells were viewed using in an Inverted Zeiss LSM 510 NLO microscope equipped with Argon (Ar) laser (488 nm) 30 mW to image the fluorescent marker FITC and UV lamp to image DAPI stained nuclei. Five to seven fields consisting of 25 cells in total were randomly selected from a tile scan (20×) and individual cells viewed at 63× were then scored for γH2AX DNA damage foci using ImageJ 1.45 software (http://rsbweb.nih.gov/ij/). One of the factors affecting cellular lifespan is accumulation of DNA damage.

FPP synthase = target: T1, FPP synthase (Homo sapiens, UniProt P14324); test: Prenyl synthase assay (FPP synthase activity); type: biochemical
T1 sequence (P14324 1-419): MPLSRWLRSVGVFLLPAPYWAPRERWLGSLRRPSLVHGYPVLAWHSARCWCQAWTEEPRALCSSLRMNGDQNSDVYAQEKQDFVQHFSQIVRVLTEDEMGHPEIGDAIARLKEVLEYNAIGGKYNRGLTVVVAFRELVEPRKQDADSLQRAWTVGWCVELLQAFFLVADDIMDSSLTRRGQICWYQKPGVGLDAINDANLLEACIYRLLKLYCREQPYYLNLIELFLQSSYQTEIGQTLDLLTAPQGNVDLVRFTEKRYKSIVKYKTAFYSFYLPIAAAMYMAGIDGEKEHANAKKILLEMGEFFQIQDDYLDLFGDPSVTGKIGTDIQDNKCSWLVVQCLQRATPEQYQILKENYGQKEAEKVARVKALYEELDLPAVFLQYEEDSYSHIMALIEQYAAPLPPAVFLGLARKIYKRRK
Method: FPP synthase activity was measured by the method of Reed and Rilling (Reed, B. C. & Rilling, H. C. (1976) Biochemistry 15, 3739-3745) with modifications. Assays were set up such that the final volume was 100 ul. The assay conditions were 50 mM Tris pH7.7, 2 mM MgCl2, 0.5 mM TCEP, 20 μg/ml BSA. For FPP synthase assays the final enzyme concentration was 10 nM. All substrates were at 10 μM final concentration each substrate, all reactions were with IPP (14C-IPP, 400Kq/μMol American Radiochem. Corp). For FPP synthase GPP was the second substrate. Bisphosphonate was added as 1/10th volume of a 10× stock solution and allowed to preincubate for 10 minutes with the enzyme in a volume of 80 ul and the reaction started by the addition of 20 ul of the combined substrate. The reaction was allowed to proceed for 4 minutes at 37° C. before being terminated by the addition of 0.2 ml of conc. HCI/Methanol (1:4) and incubated for a further 10 mins at 37° C. The reaction mixtures were then extracted with 0.4 ml of immiscible scintillation fluid (Microscint E, Perkin Elmer) to separate reaction products from unused substrate and were counted directly with a microbeta scintillation counter (Perkin Elmer).

[3] = system: zebrafish embryo caudal fin; test: Zebrafish tail amputation and regeneration following irradiation; type: in vivo, Zebrafish (Danio Rerio H); settings: irradiated embryos, Zol plus FOH or GGOH
Method: Embryos from wild-type Zebrafish (Danio Rerio H) AB strain were collected at 16 cell stage (˜1.5 hours post fertilisation (hpf)) and grown in E3 Medium at 28° C. Embryos were treated with Zoledronate (1 μM) and/or FOH, GGOH at 24 hpf. DNA damage was induced by exposure to ^137Cs Gamma source at 48 hpf and after irradiation the embryo tails were amputated and the embryos were then incubated at 28° C. for a further 12 hrs in the presence of the chemicals. At the end of this period the chemicals were washed off and the embryos were incubated in fresh medium with no chemicals. The embryos were grown up to 120 hpf, following which they were fixed in 4% PFA overnight and then mounted in 100% glycerol. The tail lengths of embryos were measured taking the anal region as starting reference point and the end of the fin fold as the ending point of measurement.

NCCCC(O)(P(=O)(O)O)P(=O)(O)O [Alendronate]
population doublings after which cultures stopped proliferating [1]: 27-30 PDs
hMSC life span / time of proliferation in culture [1]: extend hMSC lifespan
number of γH2AX DNA damage foci after irradiation [2]: enhance repair of DNA damage

O=P(O)(O)C1CC2CCCNC2C1P(=O)(O)O (stereo not shown) [Compound A, 2-Azabicyclo-[4.3.0]nonane-8,9-diphosphonic acid]
affinity for / inhibitory potency on FPP synthase (FPP synthase): high affinity
affinity for / inhibitory potency on FPP synthase (FPP synthase; listed as compound A): high
number of γH2AX DNA damage foci after irradiation [2]: significant decrease
number of γH2AX DNA damage foci after irradiation ([2]; listed as compound A): significant reduction in DNA damage

O=P(O)(O)C1CC2CCCNC2C1P(=O)(O)O (stereo not shown) [Compound B, 2-Azabicyclo-[4.3.0]nonane-8,9-diphosphonic acid]
affinity for / inhibitory potency on FPP synthase (FPP synthase): low affinity
affinity for / inhibitory potency on FPP synthase (FPP synthase; listed as compound B): low
number of γH2AX DNA damage foci after irradiation [2]: not

O=P(O)(O)C(F)(Cc1cnc2ccccn12)P(=O)(O)O [Compound C, 1-fluoro-2-(imidazo-[1,2-a]pyridine-3-yl)-ethyl-bisphosphonic acid]
affinity for / inhibitory potency on FPP synthase (FPP synthase): high inhibitory potency
DNA repair (γH2AX DNA damage foci), concentration dependence ([2]; Compound C at increasing concentrations, 4 hours after irradiation): enhances DNA repair in a dose dependent manner

CC(C)=CCC/C(C)=C/CC/C(C)=C/CO [FOH, Trans, trans farnesol]
Zol-mediated fin repair process after addition of FOH or GGOH [3]: abrogated
effect of Zol on DNA damage after addition of prenylation intermediate [2]: reversed

CC(C)=CCC/C(C)=C/CC/C(C)=C/CC/C(C)=C/CO [GGOH, geranylgeraniol]
Zol-mediated fin repair process after addition of FOH or GGOH [3]: abrogated
effect of Zol on DNA damage after addition of prenylation intermediate [2]: reversed

O=P(O)(O)C(O)(Cc1cccnc1)P(=O)(O)O [Risedronate]
population doublings after which cultures stopped proliferating [1]: 29-34 PDs
hMSC life span / time of proliferation in culture [1]: extend hMSC lifespan
number of γH2AX DNA damage foci after irradiation [2]: enhance repair of DNA damage
